Test results: ChEMBL document CHEMBL1149608, “Pyrrolidinones as orally bioavailable antagonists of the human melanocortin-4 receptor with anti-cachectic activity” (Bioorg Med Chem, 2007)
Each block holds one compound with its values, some of them ahead of it. Activity calls are given as the source filed them. The calls are words filed in the database; no cut-off is given here.

How the values were obtained:
Melanocortin receptor 4 [1] = target: T1, Melanocortin receptor 4 (Homo sapiens, UniProt P32245); experiment: Displacement of [125I]NDP-MSH from MC4R receptor in HEK293 cells; type: cell-based
T1 sequence (P32245 whole entry): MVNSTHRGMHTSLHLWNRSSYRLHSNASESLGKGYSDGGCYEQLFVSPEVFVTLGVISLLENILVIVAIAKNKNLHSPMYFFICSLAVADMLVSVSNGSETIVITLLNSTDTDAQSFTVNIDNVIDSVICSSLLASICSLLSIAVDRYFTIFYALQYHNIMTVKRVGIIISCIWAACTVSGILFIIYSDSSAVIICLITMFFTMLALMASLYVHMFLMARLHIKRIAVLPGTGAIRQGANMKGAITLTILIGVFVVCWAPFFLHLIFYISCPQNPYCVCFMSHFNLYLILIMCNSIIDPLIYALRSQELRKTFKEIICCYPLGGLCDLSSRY

Melanocortin receptor 4 [2] = target: T1, Melanocortin receptor 4; experiment: Antagonist activity at human MC4 receptor in HEK293 cells assessed as inhibition of alpha-MSH stimulated cAMP production
Melanocortin receptor 5 = Melanocortin receptor 5 (Homo sapiens, UniProt P33032); experiment: Displacement of [125I]NDP-MSH from MC5R receptor in HEK293 cells; type: cell-based
Chain of Melanocortin receptor 5 (P33032 whole entry): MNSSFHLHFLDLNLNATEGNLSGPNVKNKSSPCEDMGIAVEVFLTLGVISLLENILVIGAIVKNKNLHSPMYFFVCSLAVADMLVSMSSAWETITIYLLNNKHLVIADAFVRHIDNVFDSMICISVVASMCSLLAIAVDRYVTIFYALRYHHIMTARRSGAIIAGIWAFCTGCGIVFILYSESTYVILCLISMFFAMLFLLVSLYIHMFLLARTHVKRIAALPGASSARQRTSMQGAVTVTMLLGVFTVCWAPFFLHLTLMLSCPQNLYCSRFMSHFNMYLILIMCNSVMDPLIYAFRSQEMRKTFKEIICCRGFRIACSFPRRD

Melanocortin receptor 3 = Melanocortin receptor 3 (Homo sapiens, UniProt P41968); experiment: Displacement of [125I]NDP-MSH from MC3R receptor in HEK293 cells; type: cell-based
Chain of Melanocortin receptor 3 (P41968 whole entry): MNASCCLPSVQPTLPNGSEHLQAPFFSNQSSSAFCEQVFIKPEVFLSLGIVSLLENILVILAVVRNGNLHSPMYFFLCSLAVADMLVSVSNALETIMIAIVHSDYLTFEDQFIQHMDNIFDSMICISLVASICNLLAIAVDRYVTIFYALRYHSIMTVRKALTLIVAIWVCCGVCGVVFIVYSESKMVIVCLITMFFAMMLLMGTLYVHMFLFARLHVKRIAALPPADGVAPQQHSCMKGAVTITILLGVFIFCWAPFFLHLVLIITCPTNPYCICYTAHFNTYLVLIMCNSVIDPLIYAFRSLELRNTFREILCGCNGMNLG

Mus musculus [3] = experiment: Increase in food intake in LLC-tumor bearing C57BL/6J mouse at 3 mg/kg, ip relative to control; type: functional, organism-based; parameters: dose 3 mg/kg
in vivo [4] = settings: C57BL/6J, mouse, po, 10 mg/kg
in vivo [5] = settings: C57BL/6J, mouse, iv, 5 mg/kg
Mus musculus [6] = experiment: Increase in fat mass in LLC-tumor bearing C57BL/6J mouse at 3 mg/kg, ip; type: functional; settings: route intraperitoneal
in vivo [7] = settings: C57BL/6J, mouse, plasma, iv, 5 mg/kg
physchem = settings: octanol/water
in vivo [8] = settings: C57BL/6J, mouse, brain, iv, 5 mg/kg
in vivo [9] = settings: C57BL/6J, mouse, po, 10 mg/kg; remark: listed apart in the source
in vivo [10] = settings: C57BL/6J, mouse, brain, iv, 5 mg/kg; remark: listed apart in the source
in vivo [11] = settings: C57BL/6J, mouse, plasma, po, 10 mg/kg
Mus musculus [12] = experiment: Increase in body weight in LLC-tumor bearing C57BL/6J mouse at 9 mg/kg, ip; type: functional, organism-based; parameters: dose 9 mg/kg
Mus musculus [13] = experiment: Increase in food intake in LLC-tumor bearing C57BL/6J mouse at 9 mg/kg, ip relative to control; type: functional, organism-based; parameters: dose 9 mg/kg
in vivo [14] = settings: C57BL/6J, mouse, iv, 5 mg/kg; remark: listed apart in the source
in vivo [15] = settings: C57BL/6J, mouse, plasma, iv, 5 mg/kg; remark: listed apart in the source
Mus musculus [16] = experiment: Increase in body weight in LLC-tumor bearing C57BL/6J mouse at 3 mg/kg, ip; type: functional, organism-based; parameters: dose 3 mg/kg
in vivo [17] = settings: C57BL/6J, mouse, brain, iv, 5 mg/kg; remark: listed apart in the source
in vivo [18] = settings: C57BL/6J, mouse, brain, iv, 5 mg/kg; remark: listed apart in the source
Mus musculus [19] = experiment: Increase in lean body mass in LLC-tumor bearing C57BL/6J mouse at 9 mg/kg, ip; type: functional; settings: route intraperitoneal
[20] = target: Growth hormone secretagogue receptor type 1 (Homo sapiens, UniProt Q92847); experiment: Agonist activity at ghrelin receptor; type: functional
Chain of Growth hormone secretagogue receptor type 1 (Q92847 whole entry): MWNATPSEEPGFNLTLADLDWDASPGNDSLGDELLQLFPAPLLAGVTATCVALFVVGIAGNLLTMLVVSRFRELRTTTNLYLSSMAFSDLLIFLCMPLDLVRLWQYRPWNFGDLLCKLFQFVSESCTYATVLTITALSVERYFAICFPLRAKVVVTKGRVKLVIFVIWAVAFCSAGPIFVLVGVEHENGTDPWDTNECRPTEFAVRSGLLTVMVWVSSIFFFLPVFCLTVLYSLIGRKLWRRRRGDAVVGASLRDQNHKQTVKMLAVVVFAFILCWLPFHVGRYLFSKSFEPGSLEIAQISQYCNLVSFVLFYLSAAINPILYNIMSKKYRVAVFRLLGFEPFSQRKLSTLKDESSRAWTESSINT

[21] = target: Melanocyte-stimulating hormone receptor (Homo sapiens) (UniProt Q01726); experiment: Displacement of [125I]NDP-MSH from MC1R receptor in HEK293 cells; type: cell-based
Chain of Melanocyte-stimulating hormone receptor (Homo sapiens) (Q01726 whole entry, looked up): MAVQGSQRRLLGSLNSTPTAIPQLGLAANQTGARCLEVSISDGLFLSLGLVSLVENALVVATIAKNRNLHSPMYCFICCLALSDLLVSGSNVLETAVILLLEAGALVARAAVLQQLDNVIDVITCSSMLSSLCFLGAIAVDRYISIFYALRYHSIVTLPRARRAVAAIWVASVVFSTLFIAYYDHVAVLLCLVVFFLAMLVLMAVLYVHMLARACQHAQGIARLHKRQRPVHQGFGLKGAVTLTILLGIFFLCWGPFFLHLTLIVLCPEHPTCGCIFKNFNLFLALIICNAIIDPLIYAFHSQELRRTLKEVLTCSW

Melanocortin receptor 4 [22] = target: Melanocortin receptor 4 (Mus musculus, UniProt P56450); experiment: Binding affinity to C57BL/6J mouse MC4 receptor
Chain of Melanocortin receptor 4 (Mus musculus, UniProt P56450) (P56450 whole entry): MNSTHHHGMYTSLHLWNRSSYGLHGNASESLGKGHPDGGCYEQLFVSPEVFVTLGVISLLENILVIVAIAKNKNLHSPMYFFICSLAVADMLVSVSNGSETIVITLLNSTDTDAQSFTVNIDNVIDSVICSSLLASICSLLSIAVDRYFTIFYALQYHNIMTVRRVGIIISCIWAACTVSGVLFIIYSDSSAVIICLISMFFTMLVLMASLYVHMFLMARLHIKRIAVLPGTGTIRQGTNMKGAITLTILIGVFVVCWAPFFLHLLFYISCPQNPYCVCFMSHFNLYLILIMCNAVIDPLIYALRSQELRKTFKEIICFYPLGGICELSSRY

Mus musculus [23] = experiment: Increase in lean body mass in LLC-tumor bearing C57BL/6J mouse at 3 mg/kg, ip; type: functional; settings: route intraperitoneal
Mus musculus [24] = experiment: Increase in fat mass in LLC-tumor bearing C57BL/6J mouse at 9 mg/kg, ip; type: functional; settings: route intraperitoneal
in vivo [25] = settings: C57BL/6J, mouse, po, 10 mg/kg; remark: listed apart in the source
Melanocortin receptor 4 [26] = target: Melanocortin receptor 4 (Rattus norvegicus, UniProt P70596); experiment: Binding affinity to rat MC4 receptor
Chain of Melanocortin receptor 4 (Rattus norvegicus, UniProt P70596) (P70596 whole entry): as the sequence (P56450 whole entry) above, with Y21H, P36S, S199T, T239A, S329P, S330G counted along it

[27] = AUC (0 to 24 hrs) in brain of C57BL/6J mouse at 5 mg/kg, iv; type: ADME, organism-based; parameters: time < 24 hr, dose 5 mg/kg, route intravenous

SMILES: CC(C)C[C@H](N)c1cccc(C(F)(F)F)c1N1CCN(C(=O)[C@@H](Cc2ccc(Cl)cc2Cl)NC(=O)CN)CC1
Ki (Melanocortin receptor 4 [1]): 3.3 nM | Activity (Melanocortin receptor 4 [2]): Dose-dependent effect

SMILES: CC(C)C[C@@H](N)c1cc(C(F)(F)F)ccc1N1CCN(C(=O)[C@@H](Cc2ccc(Cl)cc2Cl)NC(=O)CCN)CC1
Ki (Melanocortin receptor 4 [1]): 10 nM | Activity (Melanocortin receptor 4 [2]): Dose-dependent effect

SMILES: CC(C)C[C@H](N)c1cc(C(F)(F)F)ccc1N1CCN(C(=O)[C@H](Cc2ccc(Cl)cc2)N2CCCC2=O)CC1
Ki (Melanocortin receptor 4 [1]): 8.8 nM | Activity (Melanocortin receptor 4 [2]): Dose-dependent effect

SMILES: CC(C)C[C@H](N)c1cc(C(F)(F)F)ccc1N1CCN(C(=O)[C@H](N)Cc2ccc(Cl)cc2Cl)CC1
Ki (Melanocortin receptor 4 [1]): 39 nM | Activity (Melanocortin receptor 4 [2]): Dose-dependent effect

SMILES: CC(=O)N[C@H](Cc1ccc(Cl)cc1Cl)C(=O)N1CCN(c2c([C@H](N)CC(C)C)cccc2C(F)(F)F)CC1
Ki (Melanocortin receptor 4 [1]): 47 nM | Activity (Melanocortin receptor 4 [2]): Dose-dependent effect

SMILES: CC(C)C[C@H](N)c1cccc(F)c1N1CCN(C(=O)[C@@H](Cc2ccc(Cl)cc2Cl)NC(=O)CCN)CC1
Ki (Melanocortin receptor 4 [1]): 0.8 nM | Ki (Melanocortin receptor 5): 240 nM | Activity (Melanocortin receptor 4 [2]): Dose-dependent effect | Ki (Melanocortin receptor 3): 450 nM

SMILES: CC(C)C[C@H](N)c1cccc(C(F)(F)F)c1N1CCN(C(=O)[C@@H](Cc2ccc(Cl)cc2Cl)NC(=O)CCN)CC1
Ki (Melanocortin receptor 4 [1]): 2.5 nM | Activity (Melanocortin receptor 4 [2]): Dose-dependent effect

SMILES: CC(C)C[C@H](N)c1cccc(F)c1N1CCN(C(=O)[C@@H](Cc2ccc(Cl)cc2Cl)NC(=O)CN)CC1
Ki (Melanocortin receptor 4 [1]): 3.3 nM | Activity (Melanocortin receptor 4 [2]): Dose-dependent effect

SMILES: CC(C)C[C@H](N)c1cc(C(F)(F)F)ccc1N1CCN(C(=O)[C@@H](Cc2ccc(Cl)cc2Cl)N2CCCC2=O)CC1
Activity [21]: 21%

SMILES: CC(C)C[C@H](N)c1cc(C(F)(F)F)ccc1N1CCN(C(=O)[C@@H](Cc2ccc(Cl)cc2Cl)N2CCNCC2=O)CC1
Tmax (in vivo [4]): 0.5 h | half-life (in vivo [5]): 7.7 h | AUC (in vivo [7]): 3940 ng·h/mL | logD (physchem): 2.8 | Kp at 1 h (in vivo [8]): 0.07 | AUC(0-t) at 24 h [27]: 1260 ng/g.hr | Cmax (in vivo [9]): 214 ng/mL | Kp at 4 h (in vivo [10]): 0.24 | AUC (in vivo [11]): 1530 ng·h/mL | Ki (Melanocortin receptor 4 [1]): 4.5 nM | Ki (Melanocortin receptor 5): 360 nM | Vd (in vivo [14]): 13 L/kg | clearance (in vivo [15]): 20 mL/min/kg | concentration at 1 h (in vivo [17]): 41 ng/g | concentration at 4 h (in vivo [18]): 46 ng/g | IC50 (Melanocortin receptor 4 [2]): 210 nM | Activity [21]: 23% | Ki (Melanocortin receptor 3): 950 nM | bioavailability (in vivo [25]): 19.4%

SMILES: CC(=O)N[C@H](Cc1ccc(Cl)cc1Cl)C(=O)N1CCN(c2ccc(F)cc2[C@H](N)CC(C)C)CC1
Ki (Melanocortin receptor 4 [1]): 26 nM | Activity (Melanocortin receptor 4 [2]): Dose-dependent effect

The next lines start with results.

Ki (Melanocortin receptor 4 [1]): 38 nM | Activity (Melanocortin receptor 4 [2]): Dose-dependent effect
SMILES: CC(C)C[C@H](N)c1ccccc1N1CCN(C(=O)[C@@H](Cc2ccc(Cl)cc2)N2CCCC2=O)CC1

Ki (Melanocortin receptor 4 [1]): 1.8 nM | Activity (Melanocortin receptor 4 [2]): Dose-dependent effect
SMILES: CC(C)C[C@H](N)c1cc(C(F)(F)F)ccc1N1CCN(C(=O)[C@@H](Cc2ccc(Cl)cc2Cl)NC(=O)CN)CC1

Ki (Melanocortin receptor 4 [1]): 7.1 nM | Activity (Melanocortin receptor 4 [2]): Dose-dependent effect
SMILES: CC(C)C[C@@H](N)c1cccc(F)c1N1CCN(C(=O)[C@@H](Cc2ccc(Cl)cc2Cl)NC(=O)CN)CC1

Ki (Melanocortin receptor 4 [1]): 0.8 nM | Activity (Melanocortin receptor 4 [2]): Dose-dependent effect
SMILES: CC(C)C[C@H](N)c1cc(C(F)(F)F)ccc1N1CCN(C(=O)[C@@H](Cc2ccc(Cl)cc2Cl)NC(=O)C2CCNCC2)CC1

Activity (Melanocortin receptor 4 [2]): Dose-dependent effect
SMILES: CC(C)C[C@H](N)c1cccc(F)c1N1CCN(C(=O)[C@@H](Cc2ccc(Cl)cc2Cl)N2CCCC2=O)CC1

Ki (Melanocortin receptor 4 [1]): 6 nM | Activity (Melanocortin receptor 4 [2]): Dose-dependent effect
SMILES: CC(=O)N[C@H](Cc1ccc(Cl)cc1Cl)C(=O)N1CCN(c2c(F)cccc2[C@H](N)CC(C)C)CC1

Ki (Melanocortin receptor 4 [1]): 29 nM | Activity (Melanocortin receptor 4 [2]): Dose-dependent effect
SMILES: CC(C)C[C@@H](N)c1cccc(C(F)(F)F)c1N1CCN(C(=O)[C@@H](Cc2ccc(Cl)cc2Cl)NC(=O)CCN)CC1

Ki (Melanocortin receptor 4 [1]): 49 nM | Activity (Melanocortin receptor 4 [2]): Dose-dependent effect
SMILES: CC(C)C[C@@H](N)c1cccc(C(F)(F)F)c1N1CCN(C(=O)[C@@H](Cc2ccc(Cl)cc2Cl)NC(=O)CN)CC1

Ki (Melanocortin receptor 4 [1]): 7.5 nM | Activity (Melanocortin receptor 4 [2]): Dose-dependent effect
SMILES: CC(=O)N[C@H](Cc1ccc(Cl)cc1Cl)C(=O)N1CCN(c2c(F)cccc2[C@@H](N)CC(C)C)CC1

Tmax (in vivo [4]): 0.5 h | half-life (in vivo [5]): 2.2 h | AUC (in vivo [7]): 2680 ng·h/mL | logD (physchem): 3.1 | Kp at 1 h (in vivo [8]): 1.27 | Cmax (in vivo [9]): 270 ng/mL | Kp at 4 h (in vivo [10]): 0.81 | AUC (in vivo [11]): 2270 ng·h/mL | Ki (Melanocortin receptor 4 [1]): 11 nM | Ki (Melanocortin receptor 5): 990 nM | Vd (in vivo [14]): 5.8 L/kg | clearance (in vivo [15]): 31 mL/min/kg | concentration at 1 h (in vivo [17]): 484 ng/g | concentration at 4 h (in vivo [18]): 154 ng/g | IC50 (Melanocortin receptor 4 [2]): 510 nM | EC50 [20]: 4100 nM | Intrinsic activity [20]: 47% | Activity [21]: 31% | Ki (Melanocortin receptor 4 [22]): 5.5 nM | Ki (Melanocortin receptor 3): 1800 nM | bioavailability (in vivo [25]): 42.4% | Ki (Melanocortin receptor 4 [26]): 9.1 nM
SMILES: CC(C)C[C@H](N)c1cc(C(F)(F)F)ccc1N1CCN(C(=O)[C@@H](Cc2ccc(Cl)cc2)N2CCCC2=O)CC1
Activity (Mus musculus [3]): Active | Activity (Mus musculus [6]): 10% | Activity (Mus musculus [12]): Active | Activity (Mus musculus [13]): Active | Activity (Mus musculus [16]): Active | Activity (Mus musculus [19]): 20% | Activity (Mus musculus [23]): 20% | Activity (Mus musculus [24]): 10%

Ki (Melanocortin receptor 4 [1]): 2.3 nM | Activity (Melanocortin receptor 4 [2]): Dose-dependent effect
SMILES: CC(C)C[C@@H](N)c1cccc(F)c1N1CCN(C(=O)[C@@H](Cc2ccc(Cl)cc2Cl)NC(=O)CCN)CC1

Ki (Melanocortin receptor 4 [1]): 1 nM | Activity (Melanocortin receptor 4 [2]): Dose-dependent effect
SMILES: CC(C)C[C@H](N)c1cc(C(F)(F)F)ccc1N1CCN(C(=O)[C@@H](Cc2ccc(Cl)cc2Cl)NC(=O)CCN)CC1

Ki (Melanocortin receptor 4 [1]): 1.8 nM | Activity (Melanocortin receptor 4 [2]): Dose-dependent effect
SMILES: CC(=O)N[C@H](Cc1ccc(Cl)cc1Cl)C(=O)N1CCN(c2ccc(C(F)(F)F)cc2[C@@H](N)CC(C)C)CC1
